From publication PMC5218480 (PLoS ONE, 2017) come the findings set out here.

In this assay the test system is MV-4-11 cells. Nature of the assay: Gene expression microarray analysis (Affymetrix PrimeView) and GSEA. It is filed as cell-based, human. The following applies: MV-4-11 cells, 48 hours. Further details: RFU PODN (11730768_x_at) / Fold change /veh PODN (11730768_x_at) / RFU LINC00158 (11744669_a_at) / Fold change /veh LINC00158 (11744669_a_at) / RFU DUSP10 (11751237_a_at) / Fold change /veh DUSP10 (11751237_a_at) / RFU ID3 (11757404_x_at) / Fold change /veh ID3 (11757404_x_at) / RFU PLEKHG5 (11737974_s_at) / Fold change /veh PLEKHG5 (11737974_s_at) / RFU LRRC4B (11730491_at) / Fold change /veh LRRC4B (11730491_at) / RFU GIMAP4 (11747438_a_at) / Fold change /veh GIMAP4 (11747438_a_at) / RFU KRT8 (11758183_x_at) / Fold change /veh KRT8 (11758183_x_at) / RFU CNN1 (11734310_a_at) / Fold change /veh CNN1 (11734310_a_at) / RFU VPS37D (11726825_at) / Fold change /veh VPS37D (11726825_at) / RFU C10orf10 (11716522_x_at) / Fold change /veh C10orf10 (11716522_x_at) / RFU KIR2DL2 /// KIR2DL4 /// KIR2DL5A /// KIR2DL5B /// KIR2DS1 /// KIR2DS2 /// KIR2DS3 /// KIR2DS4 /// KIR3DL3 /// KIR3DL3 /// KIR3DS1 (11738374_at) / Fold change /veh KIR2DL2 /// KIR2DL4 /// KIR2DL5A /// KIR2DL5B /// KIR2DS1 /// KIR2DS2 /// KIR2DS3 /// KIR2DS4 /// KIR3DL3 /// KIR3DL3 /// KIR3DS1 (11738374_at) / RFU C1QL1 (11718748_at) / Fold change /veh C1QL1 (11718748_at) / RFU TMPRSS4 (11747572_a_at) / Fold change /veh TMPRSS4 (11747572_a_at) / RFU HAMP (11756126_x_at) / Fold change /veh HAMP (11756126_x_at) / RFU RNFT2 (11725882_a_at) / Fold change /veh RNFT2 (11725882_a_at) / RFU NR4A2 (11747474_a_at) / Fold change /veh NR4A2 (11747474_a_at) / RFU ABCC12 (11746883_a_at) / Fold change /veh ABCC12 (11746883_a_at) / RFU TMEM136 (11760407_x_at) / Fold change /veh TMEM136 (11760407_x_at) / RFU CLDN22 /// WWC2 (11732394_at) / Fold change /veh CLDN22 /// WWC2 (11732394_at) / RFU HLA-DPB1 (11760878_x_at) / Fold change /veh HLA-DPB1 (11760878_x_at) / RFU SPINT1 (11716480_a_at) / Fold change /veh SPINT1 (11716480_a_at) / RFU GAP43 (11754022_s_at) / Fold change /veh GAP43 (11754022_s_at) / RFU A4GNT (11735810_at) / Fold change /veh A4GNT (11735810_at) / RFU PRB3 (11715151_x_at) / Fold change /veh PRB3 (11715151_x_at) / RFU TUBB4B (11761932_at) / Fold change /veh TUBB4B (11761932_at) / RFU CAPN14 (11732068_a_at) / Fold change /veh CAPN14 (11732068_a_at) / RFU TMCC2 (11721928_a_at) / Fold change /veh TMCC2 (11721928_a_at) / RFU IRGQ (11745062_a_at) / Fold change /veh IRGQ (11745062_a_at) / RFU FAM174B (11720279_a_at) / Fold change /veh FAM174B (11720279_a_at) / RFU TMPRSS4 (11748680_a_at) / Fold change /veh TMPRSS4 (11748680_a_at) / RFU FAM212B (11763350_a_at) / Fold change /veh FAM212B (11763350_a_at) / RFU PLEKHG5 (11743358_a_at) / Fold change /veh PLEKHG5 (11743358_a_at) / RFU ZSCAN30 (11745921_a_at) / Fold change /veh ZSCAN30 (11745921_a_at) / RFU CMKLR1 (11741424_a_at) / Fold change /veh CMKLR1 (11741424_a_at) / RFU LOC101060620 /// MAPK8IP1 (11723275_at) / Fold change /veh LOC101060620 /// MAPK8IP1 (11723275_at) / RFU SPTSSB (11747773_x_at) / Fold change /veh SPTSSB (11747773_x_at) / RFU PRSS12 (11739890_at) / Fold change /veh PRSS12 (11739890_at) / RFU BIN1 (11741810_x_at) / Fold change /veh BIN1 (11741810_x_at) / RFU WNT11 (11732464_a_at) / Fold change /veh WNT11 (11732464_a_at) / RFU C10orf10 (11716521_a_at) / Fold change /veh C10orf10 (11716521_a_at) / RFU C5orf56 (11738089_at) / Fold change /veh C5orf56 (11738089_at) / RFU CYB561 (11721691_x_at) / Fold change /veh CYB561 (11721691_x_at) / RFU ANKRD19P (11752326_a_at) / Fold change /veh ANKRD19P (11752326_a_at) / RFU OR2T12 /// OR2T33 /// OR2T8 (11738714_s_at) / Fold change /veh OR2T12 /// OR2T33 /// OR2T8 (11738714_s_at) / RFU VCAN (11748164_a_at) / Fold change /veh VCAN (11748164_a_at) / RFU JSRP1 (11732532_at) / Fold change /veh JSRP1 (11732532_at) / RFU KRTAP10-11 (11738290_x_at) / Fold change /veh KRTAP10-11 (11738290_x_at) / RFU MYO3A (11730013_a_at) / Fold change /veh MYO3A (11730013_a_at) / RFU EBF3 (11725865_a_at) / Fold change /veh EBF3 (11725865_a_at) / RFU CAMK2N1 (11719241_x_at) / Fold change /veh CAMK2N1 (11719241_x_at) / RFU C5orf56 (11738088_a_at) / Fold change /veh C5orf56 (11738088_a_at) / RFU OLFML3 (11715873_a_at) / Fold change /veh OLFML3 (11715873_a_at) / RFU LOC100653217 /// NTM (11731650_a_at) / Fold change /veh LOC100653217 /// NTM (11731650_a_at) / RFU MAPK11 (11762145_a_at) / Fold change /veh MAPK11 (11762145_a_at) / RFU FIZ1 (11724087_x_at) / Fold change /veh FIZ1 (11724087_x_at) / RFU OASL (11726364_x_at) / Fold change /veh OASL (11726364_x_at) / RFU SOX15 (11748057_x_at) / Fold change /veh SOX15 (11748057_x_at) / RFU CD79A (11719716_a_at) / Fold change /veh CD79A (11719716_a_at) / RFU HIST1H1D (11736915_at) / Fold change /veh HIST1H1D (11736915_at) / RFU CASKIN2 (11723855_a_at) / Fold change /veh CASKIN2 (11723855_a_at) / RFU LOC730098 (11760151_x_at) / Fold change /veh LOC730098 (11760151_x_at) / RFU OR4N2 (11742367_at) / Fold change /veh OR4N2 (11742367_at) / RFU PRRT2 (11749266_a_at) / Fold change /veh PRRT2 (11749266_a_at) / RFU SNX32 (11753110_a_at) / Fold change /veh SNX32 (11753110_a_at) / RFU CDHR5 (11726645_a_at) / Fold change /veh CDHR5 (11726645_a_at) / RFU RCAN1 (11760418_a_at) / Fold change /veh RCAN1 (11760418_a_at) / RFU FAM167A (11723789_a_at) / Fold change /veh FAM167A (11723789_a_at) / RFU FAM26E (11764081_at) / Fold change /veh FAM26E (11764081_at) / RFU ISYNA1 (11749810_s_at) / Fold change /veh ISYNA1 (11749810_s_at) / RFU ACY1 (11761880_at) / Fold change /veh ACY1 (11761880_at) / RFU 11764098_at / Fold change /veh 11764098_at / RFU SAMD14 (11745864_x_at) / Fold change /veh SAMD14 (11745864_x_at) / RFU NPB (11741838_a_at) / Fold change /veh NPB (11741838_a_at) / RFU TMPRSS6 (11731388_a_at) / Fold change /veh TMPRSS6 (11731388_a_at) / RFU KRTAP10-2 (11738614_at) / Fold change /veh KRTAP10-2 (11738614_at) / RFU ARHGAP8 /// PRR5-ARHGAP8 (11727945_x_at) / Fold change /veh ARHGAP8 /// PRR5-ARHGAP8 (11727945_x_at) / RFU KRTAP5-7 /// NADSYN1 (11734609_at) / Fold change /veh KRTAP5-7 /// NADSYN1 (11734609_at) / RFU RASL12 (11751679_a_at) / Fold change /veh RASL12 (11751679_a_at) / RFU CDKN2B (11736163_a_at) / Fold change /veh CDKN2B (11736163_a_at) / RFU PRF1 (11729649_at) / Fold change /veh PRF1 (11729649_at) / RFU, ZNF638 /// ZNF638-IT1 / Fold change vs veh, ZNF638 /// ZNF638-IT1 / RFU, PANK3 / Fold change vs veh, PANK3 / RFU, SH3YL1 / Fold change vs veh, SH3YL1 / RFU, ZEB2 / Fold change vs veh, ZEB2 / RFU, NRIP1 / Fold change vs veh, NRIP1 / RFU, PTTG1IP / Fold change vs veh, PTTG1IP / RFU, CAPN2 / Fold change vs veh, CAPN2 / RFU, MED14 / Fold change vs veh, MED14 / RFU, SNORA58 / Fold change vs veh, SNORA58 / RFU, C1orf63 / Fold change vs veh, C1orf63 / RFU, LRRFIP1 / Fold change vs veh, LRRFIP1 / RFU, NDUFAF7 / Fold change vs veh, NDUFAF7 / RFU, SLC12A2 / Fold change vs veh, SLC12A2 / RFU, IBTK / Fold change vs veh, IBTK / RFU, ESF1 / Fold change vs veh, ESF1 / Fold change vs veh, TMEM50B / RFU, TAOK1 / Fold change vs veh, TAOK1 / RFU, ACBD3 / Fold change vs veh, ACBD3 / RFU, TMA16 / Fold change vs veh, TMA16 / RFU, RWDD3 / Fold change vs veh, RWDD3 / RFU, BCAT1 / Fold change vs veh, BCAT1 / RFU, EDEM3 / Fold change vs veh, EDEM3 / RFU, TMEM33 / Fold change vs veh, TMEM33 / RFU, WDR75 / Fold change vs veh, WDR75 / RFU, AHCTF1 / Fold change vs veh, AHCTF1 / RFU, TFRC / Fold change vs veh, TFRC / RFU, ZDHHC17 / Fold change vs veh, ZDHHC17 / RFU, NOM1 / Fold change vs veh, NOM1 / RFU, ARL8B / Fold change vs veh, ARL8B / RFU, ZBTB11 / Fold change vs veh, ZBTB11 / RFU, TAMM41 / Fold change vs veh, TAMM41 / RFU, KIAA1704 /// LOC100996395 / Fold change vs veh, KIAA1704 /// LOC100996395 / RFU, ING1 / Fold change vs veh, ING1 / RFU, TRMT61B / Fold change vs veh, TRMT61B / RFU, FUBP3 / Fold change vs veh, FUBP3 / RFU, TP53 / Fold change vs veh, TP53 / RFU, TNKS2 / Fold change vs veh, TNKS2 / RFU, ZFP14 / Fold change vs veh, ZFP14 / RFU, ACTR2 / Fold change vs veh, ACTR2 / RFU, PPP3R1 / Fold change vs veh, PPP3R1 / RFU, PIK3R1 / Fold change vs veh, PIK3R1 / RFU, HNRNPA1 / Fold change vs veh, HNRNPA1 / RFU, RNF170 / Fold change vs veh, RNF170 / RFU, ZNF28 / Fold change vs veh, ZNF28 / RFU, RNGTT / Fold change vs veh, RNGTT / RFU, OGT / Fold change vs veh, OGT / RFU, BRD1 / Fold change vs veh, BRD1 / RFU, MARS / Fold change vs veh, MARS / RFU, ZNF655 / Fold change vs veh, ZNF655 / RFU, FAHD1 / Fold change vs veh, FAHD1 / RFU, BDP1 / Fold change vs veh, BDP1 / RFU, LRRCC1 / Fold change vs veh, LRRCC1 / RFU, ARID1A / Fold change vs veh, ARID1A / RFU, ZNF146 / Fold change vs veh, ZNF146 / RFU, ZNF330 / Fold change vs veh, ZNF330 / RFU, GPN3 / Fold change vs veh, GPN3 / RFU, C9orf123 / Fold change vs veh, C9orf123 / RFU, N4BP2L2 / Fold change vs veh, N4BP2L2 / RFU, ARFIP1 / Fold change vs veh, ARFIP1 / RFU, FAM179B / Fold change vs veh, FAM179B / RFU, BCL10 / Fold change vs veh, BCL10 / RFU, UHRF1BP1L / Fold change vs veh, UHRF1BP1L / RFU, BET1 / Fold change vs veh, BET1 / RFU, CNOT2 / Fold change vs veh, CNOT2 / RFU, ZNF268 / Fold change vs veh, ZNF268 / Fold change vs veh, ZNF507 / RFU, DGCR2 / Fold change vs veh, DGCR2 / RFU, WDSUB1 / Fold change vs veh, WDSUB1 / Fold change vs veh, HSP90B1 /// MIR3652 / RFU, ADSS / Fold change vs veh, ADSS / RFU, GK / Fold change vs veh, GK / RFU, ZNF148 / Fold change vs veh, ZNF148 / RFU, TAF9 / Fold change vs veh, TAF9 / RFU, SLC1A5 / Fold change vs veh, SLC1A5 / RFU, SLMO2 / Fold change vs veh, SLMO2 / RFU, ABCC4 / Fold change vs veh, ABCC4 / RFU, LOC101060439 /// RAP1B / Fold change vs veh, LOC101060439 /// RAP1B / RFU, RFX7 / Fold change vs veh, RFX7 / RFU, GTPBP10 / Fold change vs veh, GTPBP10 / RFU, CNEP1R1 / Fold change vs veh, CNEP1R1 / RFU, BIVM-ERCC5 /// ERCC5 / Fold change vs veh, BIVM-ERCC5 /// ERCC5 / RFU, ILF3 / Fold change vs veh, ILF3 / RFU 11762660_at / Fold change /veh 11762660_at / RFU VCAN (11757783_s_at) / Fold change /veh VCAN (11757783_s_at) / RFU DDX43 (11728927_at) / Fold change /veh DDX43 (11728927_at) / RFU KRT8 (11758188_x_at) / Fold change /veh KRT8 (11758188_x_at) / RFU NKD1 (11759106_at) / Fold change /veh NKD1 (11759106_at) / RFU SRD5A1 (11742802_a_at) / Fold change /veh SRD5A1 (11742802_a_at) / RFU TPSAB1 /// TPSB2 (11721975_s_at) / Fold change /veh TPSAB1 /// TPSB2 (11721975_s_at) / RFU GSTM3 (11746129_a_at) / Fold change /veh GSTM3 (11746129_a_at) / RFU IL23R (11737362_x_at) / Fold change /veh IL23R (11737362_x_at) / RFU TMEM51 (11727254_a_at) / Fold change /veh TMEM51 (11727254_a_at) / RFU PIWIL2 (11732686_x_at) / Fold change /veh PIWIL2 (11732686_x_at) / RFU ORM1 (11744905_x_at) / Fold change /veh ORM1 (11744905_x_at) / RFU CCDC152 (11743942_at) / Fold change /veh CCDC152 (11743942_at) / RFU ECM1 (11717891_a_at) / Fold change /veh ECM1 (11717891_a_at) / RFU IL23R (11748794_a_at) / Fold change /veh IL23R (11748794_a_at) / RFU TNFAIP8L3 (11732012_x_at) / Fold change /veh TNFAIP8L3 (11732012_x_at) / RFU MBOAT4 (11741988_at) / Fold change /veh MBOAT4 (11741988_at) / RFU 11764193_at / Fold change /veh 11764193_at / RFU TMEM53 (11763286_at) / Fold change /veh TMEM53 (11763286_at) / RFU MAGEB2 (11727129_at) / Fold change /veh MAGEB2 (11727129_at) / RFU TMEM200A (11744735_a_at) / Fold change /veh TMEM200A (11744735_a_at) / RFU CCDC152 (11751479_a_at) / Fold change /veh CCDC152 (11751479_a_at) / RFU FAM211A (11726209_a_at) / Fold change /veh FAM211A (11726209_a_at) / RFU RGS16 (11746705_a_at) / Fold change /veh RGS16 (11746705_a_at) / RFU VCAN (11755009_s_at) / Fold change /veh VCAN (11755009_s_at) / RFU RHOB (11743442_s_at) / Fold change /veh RHOB (11743442_s_at) / RFU RGS16 (11720943_a_at) / Fold change /veh RGS16 (11720943_a_at) / RFU RGS16 (11720944_at) / Fold change /veh RGS16 (11720944_at) / RFU, VPS4B / Fold change vs veh, VPS4B / RFU, CREB1 / Fold change vs veh, CREB1 / RFU, DNAJC13 / Fold change vs veh, DNAJC13 / RFU, GNAQ / Fold change vs veh, GNAQ / RFU, CDK5R1 / Fold change vs veh, CDK5R1 / RFU, ZRANB3 / Fold change vs veh, ZRANB3 / RFU, CUL4A / Fold change vs veh, CUL4A / RFU, CCNY / Fold change vs veh, CCNY / RFU, UFL1 / Fold change vs veh, UFL1 / RFU, COG3 / Fold change vs veh, COG3 / RFU, DIAPH2 / Fold change vs veh, DIAPH2 / RFU, SKA2 / Fold change vs veh, SKA2 / RFU, AFF3 / Fold change vs veh, AFF3 / RFU, LMF1 / Fold change vs veh, LMF1 / RFU, IPO11 / Fold change vs veh, IPO11 / RFU, DFFB / Fold change vs veh, DFFB / RFU, FOXP1 / Fold change vs veh, FOXP1 / RFU, CARD8 / Fold change vs veh, CARD8 / RFU, STRN3 / Fold change vs veh, STRN3 / RFU, ADK / Fold change vs veh, ADK / RFU, RASSF2 / Fold change vs veh, RASSF2 / RFU, WIPF1 / Fold change vs veh, WIPF1 / RFU, LARP1B / Fold change vs veh, LARP1B / RFU, RASA1 / Fold change vs veh, RASA1 / RFU, RB1 / Fold change vs veh, RB1 / RFU, PPFIA1 / Fold change vs veh, PPFIA1 / RFU, MAT2A / Fold change vs veh, MAT2A / RFU, CCT5 / Fold change vs veh, CCT5 / RFU, WDR92 / Fold change vs veh, WDR92 / RFU, CUX1 / Fold change vs veh, CUX1 / RFU, TTC7A / Fold change vs veh, TTC7A / RFU, TMEM135 / Fold change vs veh, TMEM135 / RFU, DEPTOR / Fold change vs veh, DEPTOR / RFU, CPM / Fold change vs veh, CPM / RFU, DNAJB6 / Fold change vs veh, DNAJB6 / RFU, CACNA2D3 / Fold change vs veh, CACNA2D3 / RFU, DTX4 / Fold change vs veh, DTX4 / RFU, TFCP2 / Fold change vs veh, TFCP2 / RFU, GMCL1 /// GMCL1P1 / Fold change vs veh, GMCL1 /// GMCL1P1 / RFU, AEBP2 / Fold change vs veh, AEBP2 / RFU, SNHG1 /// SNORD22 /// SNORD25 /// SNORD26 /// SNORD27 /// SNORD28 /// SNORD29 /// SNORD31 / Fold change vs veh, SNHG1 /// SNORD22 /// SNORD25 /// SNORD26 /// SNORD27 /// SNORD28 /// SNORD29 /// SNORD31 / Fold change (Aza/veh), C12orf56 (ProbeSet 11735607_a_at) / Fold change (ACY-1035/veh), C12orf56 (ProbeSet 11735607_a_at) / Fold change (Aza/veh), FGFR1OP (ProbeSet 11751329_s_at) / Fold change (ACY-1035/veh), FGFR1OP (ProbeSet 11751329_s_at) / Fold change (Aza/veh), VPS36 (ProbeSet 11739960_a_at) / Fold change (ACY-1035/veh), VPS36 (ProbeSet 11739960_a_at) / RFU SYPL1 (11715823_x_at) / Fold change /veh SYPL1 (11715823_x_at) / RFU IGFBP7 (11715501_s_at) / Fold change /veh IGFBP7 (11715501_s_at) / RFU REEP3 (11722064_at) / Fold change /veh REEP3 (11722064_at) / RFU IGLL1 (11728026_x_at) / Fold change /veh IGLL1 (11728026_x_at): dose or concentration left out as unconfirmed.

`Nc1ccc(-c2cccs2)cc1NC(=O)c1ccc2c(c1)cc(C1CC1)n2CCN1CCOCC1` [ACY-1035]: the “RFU CD79A (11719716_a_at)” value was determined as 10.45 RFU.
